In PubChem BioAssay (NCI):
Several values for one entry are separate records, joined by “and”; a condition that tells them apart may be missing. Identical values can stand only once.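 Method: 48-hour compound exposure of cells in 96-well plates, five concentrations, linear interpolation of endpoints. GI50 is the concentration that inhibits growth by half. Definition used: TGI = concentration required for complete inhibition of growth.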

What was measured:
Assay in all cases: NCI tumour cell line growth inhibition, 48 h
NCI-H522 lung = system: NCI-H522 lung
UACC-257 melanoma = system: UACC-257 melanoma
DU-145 prostate = system: DU-145 prostate
HCT-15 colon = system: HCT-15 colon
K-562 leukemia = system: K-562 leukemia
SK-MEL-5 melanoma = system: SK-MEL-5 melanoma
HS 578T breast = system: HS 578T breast
MCF7 breast = system: MCF7 breast
HL-60(TB) leukemia = system: HL-60(TB) leukemia
EKVX NSCLC = system: EKVX NSCLC

SMILES | GI50 (NCI-H522 lung) | TGI (NCI-H522 lung) | GI50 (UACC-257 melanoma) | TGI (UACC-257 melanoma) | GI50 (DU-145 prostate) | TGI (DU-145 prostate) | GI50 (HCT-15 colon) | TGI (HCT-15 colon) | GI50 (K-562 leukemia) | TGI (K-562 leukemia) | GI50 (SK-MEL-5 melanoma) | TGI (SK-MEL-5 melanoma) | GI50 (HS 578T breast) | TGI (HS 578T breast) | GI50 (MCF7 breast) | TGI (MCF7 breast) | GI50 (HL-60(TB) leukemia) | TGI (HL-60(TB) leukemia) | TGI (EKVX NSCLC) | GI50 (EKVX NSCLC)
CC(=O)N1CC(Nc2ccc(OC(F)(F)F)cc2)=CC1=O | 1.8 µM | 5.75 µM | > 100 µM | > 100 µM | 3.76 µM | > 100 µM | 0.45 µM | > 100 µM | 0.526 µM | > 100 µM | 0.377 µM | 12.1 µM | 3.11 µM | > 100 µM | 0.436 µM | > 100 µM | 0.842 µM | > 100 µM | – | –
COc1ccc2oc3c4c2c1CCC4CCC3=O (centres undefined) | – | > 100 µM | – | 31.2 µM | – | – | – | – | – | > 100 µM | – | > 100 µM | – | – | – | – | – | > 100 µM | > 100 µM | –
CC1=CC(=O)CCC2(C)C1CC[C@@H]2OC=O (some centres undefined) | – | > 100 µM | – | > 100 µM | – | – | – | – | – | > 100 µM | – | > 100 µM | – | – | – | – | – | > 100 µM | > 100 µM | –
C=C/C=C(\NC(=O)C(Cl)(Cl)Cl)[Si](C)(C)C | – | > 100 µM | – | > 100 µM | – | – | – | > 100 µM | – | > 100 µM | – | > 100 µM | – | – | – | – | – | > 100 µM | > 100 µM | –
C[C@]12CCC[C@H](Cl)C1(O)C[C@H](C(=O)O)CC2 (some centres undefined) | – | > 100 µM | – | > 100 µM | – | – | – | > 100 µM | – | > 100 µM | – | > 100 µM | – | – | – | – | – | > 100 µM | > 100 µM | –
COc1ccc(/C=C2\CCCCC2=O)cc1 | – | – | – | – | – | – | – | > 100 µM | – | > 100 µM | – | > 100 µM | – | – | – | – | – | > 100 µM | > 100 µM | –
CC(C)c1ccccc1NC(=O)C(=O)Cc1nc2ccccc2s1 | – | > 100 µM | – | > 100 µM | – | – | – | > 100 µM | – | – | – | > 100 µM | – | – | – | – | – | > 100 µM | > 100 µM | –
CCN(CC)c1cc(/C=C/c2ccc(OC)c(OC)c2)nc2cc(F)c(F)cc12 | 6.35 µM | > 100 µM | 15.2 µM | > 100 µM | 31.6 µM | > 100 µM | 22.8 µM | > 100 µM | – | – | 6.33 µM | > 100 µM | 3.09 µM | 12.3 µM | 15.9 µM | > 100 µM | 12.2 µM | 31.3 µM | – | –
Cc1ccc(C2NC(=S)NC3=C2CCOc2c3ccc3ccccc23)cc1 (centres undefined) | > 100 µM | > 100 µM | > 100 µM | > 100 µM | – | – | > 100 µM | > 100 µM | 4.36 µM | > 100 µM | – | – | > 100 µM | > 100 µM | 32.4 µM | > 100 µM | 5.86 µM | > 100 µM | – | –
CC[C@H]1CN2CCc3cc(OC)c(OC)cc3[C@@H]2C[C@@H]1C[C@H]1NCCc2cc(O)c(OC)cc21 | – | – | – | 0.104 µM and 0.346 µM | 0.0233 µM | 0.0637 µM and 0.137 µM | – | 0.373 µM and 0.557 µM | – | 2.65 µM | – | 0.0424 µM and 0.0157 µM and 0.114 µM | 0.0138 µM | 0.0539 µM | – | – | – | 0.0408 µM and 0.031 µM | 0.0779 µM and 0.0344 µM and 0.0322 µM | –
COc1ccc(C2=NNC(=O)OC2c2ccccc2)cc1 (centres undefined) | – | – | – | > 100 µM | – | – | – | > 100 µM | – | > 100 µM | – | – | – | – | – | – | – | > 100 µM | > 100 µM | –
CCn1cc(/C=C/C(C)c2cn(CC)c(=O)[nH]c2=O)c(=O)[nH]c1=O (centres undefined) | – | > 100 µM | – | > 100 µM | – | – | – | > 100 µM | – | > 100 µM | – | > 100 µM | – | – | – | – | – | > 100 µM | > 100 µM | –
COc1cc2c(cc1OC)-c1cc3cc(OC)c(OC)cc3n1CC2 | – | > 100 µM | – | > 100 µM | – | – | – | – | – | > 100 µM | – | – | – | – | – | – | – | > 100 µM | > 100 µM | –
COC1(OC)CC2C=C(S(=O)(=O)c3ccccc3)C1N(Cc1ccccc1)C2=O (centres undefined) | – | 33.9 µM | – | > 100 µM | – | – | – | – | – | > 100 µM | – | > 100 µM | – | – | – | – | – | 50.5 µM | > 100 µM | –
CC(=O)C1CC=C(C)CC1 (centres undefined) | – | > 100 µM | – | > 100 µM | – | – | – | > 100 µM | – | > 100 µM | – | > 100 µM | – | – | – | – | – | > 100 µM | > 100 µM | –
N#Cc1c(-c2ccc(Cl)cc2)n(O)c2ccccc12 | 2.11 µM | 6.32 µM | 2.27 µM | 6.31 µM | 3.75 µM | > 100 µM | 1.8 µM | 18.9 µM | 0.949 µM | > 100 µM | 0.557 µM | 2.06 µM | – | – | 2.67 µM | > 100 µM | 1.76 µM | 5.69 µM | 15.7 µM | 3.11 µM
CN(C)c1ccc(N=Cc2c([O-])ccc3ccccc23)cc1.[C-]#[O+].[C-]#[O+].[Ir] | 5.7 µM | 18.6 µM | 16.3 µM | 37.1 µM | – | – | – | – | 37 µM | > 100 µM | 16.4 µM | 31.2 µM | – | – | – | – | – | – | 64.6 µM | 24.9 µM
Brc1ccc(-c2nnc(-c3nn(-c4ccccc4)c4nc5ccccc5nc34)o2)cc1 | – | > 100 µM | – | > 100 µM | – | – | – | – | – | > 100 µM | – | 84.5 µM | – | – | – | – | – | > 100 µM | > 100 µM | –
